Measured values from article PMC4335020, “Single Oral Dose Pharmacokinetics of Decursin and Decursinol Angelate in Healthy Adult Men and Women” (PLoS ONE, 2015).
Read-outs that look alike come from different tables or passages of the source.

Assay: Single oral dose human plasma pharmacokinetics of D, DA and DOH after Cogni.Q
Assay type: in vivo
Excerpt: Ten healthy male and 10 female subjects were recruited by public announcement in Amarillo, TX, from January 2013 to April 2013 (see Fig. 1 CONSORT diagram). The sample size for each gender was chosen without power calculation due to the lack of prior knowledge of PK parameter variance in humans. After receiving informed consent verbally and in writing, the health status of each candidate was confirmed by health questionnaire, plasma biochemistry (hepatic and renal functions), complete blood cell count (CBC), and a physical examination by a participating academic physician. Subjects with diabetes, or pregnant, perinatal and breastfeeding women were excluded. For the 48 hours preceding study visit until the final blood draw, all subjects were instructed to avoid taking any prescription or nonprescription drugs, vitamins, and herbal/dietary supplements. Each subject was compensated for participating in the study per TTUHSC IRB approved rate.
Eligible subjects arrived at our clinical facility at 0700 (7:00 am) on the test day after a fast beginning at 2200 (10:00 pm) the previous night. After a brief review of vital signs, the nurse placed an intravenous (IV) line with saline drip in one arm of each subject. A baseline pre-dose (hour 0) blood sample was drawn through the IV line; after that subjects swallowed four Cogni.Q vegicaps with 240 mL of water at hour 0 under direct supervision. Subjects stayed at the clinical facility in their room for the next 12 hours, returning at 24 and 48 hours. Blood was drawn at baseline (hour 0) and at 0.5, 1, 2, 3, 4, 6, 8, 12, 24 and 48 hours after dosing into Vacutainer Blood Collection Tube (Becton-Dickinson, Franklin Lakes, NJ. Product Number: 367874, Sodium heparin was used as anti-coagulant). Water was allowed as desired except for within the first hour after Cogni.Q consumption. All subjects received standardized meals at post-dose hours 4.5 and 9.5 but no food was allowed for at least the first 4 hours post-dose.
Plasma was prepared by centrifuging the heparinized blood at 1000 g for 15 minutes at room temperature. Urine samples (40mL) were collected within time spans of 0–4, 4–8, 8–12 and 12–24 hours (total volume of urine was recorded). All plasma and urine samples were put on dry ice immediately and then stored at -80°C freezer until analysis.
Plasma samples were extracted with a validated solid supported liquid extraction (SLE) method facilitated with a positive pressure manifold (Biotage, Charlotte, NC). Briefly, 100 μL of plasma sample was spiked with 5 μL of 10 ng/μL prednisolone (IS), diluted with 200 μL of LC-MS grade water, mixed and loaded onto ISOLUTE SLE+ 400 μL Array Well cartridges (Biotage, Charlotte, NC). A pulse of minimum positive pressure was applied to facilitate the samples absorption into the cartridges. After the samples were allowed to absorb for 5 min, the compounds were eluted with 2×500 μL tert-butyl methyl ether. The eluent was dried in a Speedvac and the resulting residue was reconstituted in 50 μL of methanol for UHPLC-MS/MS analysis.
Eight-point calibration curves were constructed for D, DA and DOH, at concentrations of 0.1, 0.5, 1, 5, 10, 20, 50 and 100 μg/L for D and DA, and at concentrations of 1, 5, 10, 50, 100, 200, 500 and 1000 μg/L for DOH, respectively. The linear range was 0.1–100 μg/L (0.3–300 nmol/L), 0.1–100 μg/L (0.3–300 nmol/L) and 1–1000 μg/L (4–4000 nmol/L) for D, DA and DOH, respectively. The inter- and intra-assay CV were lower than 6.5% and the accuracy was between 90–105%. Calibration curve was run for each batch of samples analyzed. The mean calibration curve correlation coefficient (r) for D, DA and DOH was 0.999, 0.999 and 0.998, respectively (data from 7–10 calibration curves). In addition, 70% of the plasma samples were extracted and analyzed twice, the data from two replicate analyses were nearly identical and combined for final data analyses and presentation. […]

## CC1(C)Oc2cc3oc(=O)ccc3cc2C[C@@H]1O [DOH, decursinol]
Both sexes, human, plasma, oral, 4 Cogni.Q vegicaps, n=20 (S1 Table), read-out: Cmax, nM, Grand Mean
  Cmax: 2480 nM
Both sexes, human, plasma, oral, 4 Cogni.Q vegicaps, n=20 (S1 Table), read-out: Tmax, h, Grand Mean
  Tmax: 3.3 h
Both sexes, human, plasma, oral, all subjects, outliers excluded (S1 Table), read-out: Terminal t1/2, h, Grand Mean (converted)
  half-life: 7.4 h
Both sexes, human, plasma, oral, human subjects, read-out: plasma C max, average value
  Cmax: 2500 nM
Both sexes, human, plasma, oral, n=20 (S1 Table), read-out: AUC0-48h, Grand Mean
  AUC(0-t): 27600 nmol·h/L
Both sexes, human, plasma, oral, range over human subjects, read-out: plasma C max, range in human subjects
  Cmax: 1300 to 4000 nM
Both sexes, human, plasma, po, all human subjects n = 20, single oral dose 4 Cogni.Q vegicaps (119 mg D, 77 mg DA), plasma, read-out: Cmax, nmol/L Mean (SD)
  Cmax: 2480 nM
Both sexes, human, plasma, po, all human subjects n = 20, single oral dose Cogni.Q, plasma (Table 2), read-out: AUC0–48h, nmol/L, Mean (SD)
  AUC(0-t): 27600 nmol·h/L
Both sexes, human, twenty healthy subjects, single oral dose Cogni.Q, plasma (abstract), read-out: mean area under the curve (AUC0-48h)
  AUC(0-t): 27600 nmol·h/L
Both sexes, all human subjects n = 20, single oral dose 4 Cogni.Q vegicaps (119 mg D, 77 mg DA), plasma, read-out: Tmax, h, Mean (SD)
  Tmax: 3.3 h
Both sexes, all human subjects, four outlier subjects excluded, single oral dose Cogni.Q, plasma, read-out: Terminal t1/2, h, Mean (SD) (converted)
  half-life: 7.4 h
female, human, plasma, oral, 4 Cogni.Q vegicaps, Women n=10 (S1 Table), read-out: AUC0-48h, Mean, F
  AUC(0-t): 32700 nmol·h/L
female, human, plasma, oral, 4 Cogni.Q vegicaps, Women n=10 (S1 Table), read-out: Cmax, nM, Mean, F
  Cmax: 2610 nM
female, human, plasma, oral, Women n=10 (S1 Table), read-out: Tmax, h, Mean, F
  Tmax: 4.1 h
female, human, plasma, oral, Women, outliers excluded (S1 Table), read-out: Terminal t1/2, h, Mean, F (converted)
  half-life: 8.3 h
female, human, plasma, po, Women N = 10, single oral dose Cogni.Q, plasma, read-out: AUC0–48h, h.nmol/L Mean (SD)
  AUC(0-t): 32700 nmol·h/L
female, human, plasma, po, Women N = 10, single oral dose Cogni.Q, plasma, read-out: Cmax, nmol/L, Mean (SD)
  Cmax: 2610 nM
female, human, plasma, po, Women N = 10, single oral dose Cogni.Q, plasma, read-out: Tmax, h, Mean (SD)
  Tmax: 4.1 h
female, human, plasma, po, Women, outlier subjects excluded, single oral dose Cogni.Q, plasma, read-out: T1/2, h, terminal Mean (SD) (converted)
  half-life: 8.3 h
human, plasma, oral, 4 Cogni.Q vegicaps, subject S1 (115 lb), outlier, excluded from means, read-out: Terminal t1/2, h (converted)
  half-life: 9.9 h
human, plasma, oral, 4 Cogni.Q vegicaps, subject S1 (115 lb), read-out: AUC0-48h
  AUC(0-t): 17600 nmol·h/L
human, plasma, oral, 4 Cogni.Q vegicaps, subject S1 (115 lb), read-out: Cmax
  Cmax: 2380 nM
human, plasma, oral, 4 Cogni.Q vegicaps, subject S1 (115 lb), read-out: Tmax
  Tmax: 3 h
human, plasma, oral, 4 Cogni.Q vegicaps, subject S2 (194 lb), read-out: AUC0-48h
  AUC(0-t): 25000 nmol·h/L
human, plasma, oral, 4 Cogni.Q vegicaps, subject S2 (194 lb), read-out: Cmax
  Cmax: 2390 nM
human, plasma, oral, 4 Cogni.Q vegicaps, subject S2 (194 lb), read-out: Terminal t1/2, h (converted)
  half-life: 9.2 h
human, plasma, oral, 4 Cogni.Q vegicaps, subject S2 (194 lb), read-out: Tmax
  Tmax: 4 h
human, plasma, oral, 4 Cogni.Q vegicaps, subject S3 (170 lb), outlier, excluded from means, read-out: Terminal t1/2, h (converted)
  half-life: 5.2 h
human, plasma, oral, 4 Cogni.Q vegicaps, subject S3 (170 lb), read-out: AUC0-48h
  AUC(0-t): 8310 nmol·h/L
human, plasma, oral, 4 Cogni.Q vegicaps, subject S3 (170 lb), read-out: Cmax
  Cmax: 1560 nM
human, plasma, oral, 4 Cogni.Q vegicaps, subject S3 (170 lb), read-out: Tmax
  Tmax: 6 h
human, plasma, oral, 4 Cogni.Q vegicaps, subject S4 (170 lb), read-out: AUC0-48h
  AUC(0-t): 63700 nmol·h/L
human, plasma, oral, 4 Cogni.Q vegicaps, subject S4 (170 lb), read-out: Cmax
  Cmax: 2680 nM
human, plasma, oral, 4 Cogni.Q vegicaps, subject S4 (170 lb), read-out: Terminal t1/2, h (converted)
  half-life: 11.1 h
human, plasma, oral, 4 Cogni.Q vegicaps, subject S4 (170 lb), read-out: Tmax
  Tmax: 6 h
human, plasma, oral, 4 Cogni.Q vegicaps, subject S5 (161 lb), read-out: AUC0-48h
  AUC(0-t): 19200 nmol·h/L
human, plasma, oral, 4 Cogni.Q vegicaps, subject S5 (161 lb), read-out: Cmax
  Cmax: 1530 nM
human, plasma, oral, 4 Cogni.Q vegicaps, subject S5 (161 lb), read-out: Terminal t1/2, h (converted)
  half-life: 7.7 h
human, plasma, oral, 4 Cogni.Q vegicaps, subject S5 (161 lb), read-out: Tmax
  Tmax: 2 h
human, plasma, oral, 4 Cogni.Q vegicaps, subject S6 (120 lb), read-out: AUC0-48h
  AUC(0-t): 37500 nmol·h/L
human, plasma, oral, 4 Cogni.Q vegicaps, subject S6 (120 lb), read-out: Cmax
  Cmax: 2770 nM
human, plasma, oral, 4 Cogni.Q vegicaps, subject S6 (120 lb), read-out: Terminal t1/2, h (converted)
  half-life: 7.2 h
human, plasma, oral, 4 Cogni.Q vegicaps, subject S6 (120 lb), read-out: Tmax
  Tmax: 4 h
human, plasma, oral, 4 Cogni.Q vegicaps, subject S7 (180 lb), read-out: AUC0-48h
  AUC(0-t): 51800 nmol·h/L
human, plasma, oral, 4 Cogni.Q vegicaps, subject S7 (180 lb), read-out: Cmax
  Cmax: 3970 nM
human, plasma, oral, 4 Cogni.Q vegicaps, subject S7 (180 lb), read-out: Terminal t1/2, h (converted)
  half-life: 6.5 h
human, plasma, oral, 4 Cogni.Q vegicaps, subject S7 (180 lb), read-out: Tmax
  Tmax: 6 h
human, plasma, oral, 4 Cogni.Q vegicaps, subject S8 (160 lb), read-out: AUC0-48h
  AUC(0-t): 30400 nmol·h/L
human, plasma, oral, 4 Cogni.Q vegicaps, subject S8 (160 lb), read-out: Cmax
  Cmax: 2530 nM
human, plasma, oral, 4 Cogni.Q vegicaps, subject S8 (160 lb), read-out: Terminal t1/2, h (converted)
  half-life: 5.5 h
human, plasma, oral, 4 Cogni.Q vegicaps, subject S8 (160 lb), read-out: Tmax
  Tmax: 3 h
human, plasma, oral, 4 Cogni.Q vegicaps, subject S9 (158 lb), read-out: AUC0-48h
  AUC(0-t): 17700 nmol·h/L
human, plasma, oral, 4 Cogni.Q vegicaps, subject S9 (158 lb), read-out: Cmax
  Cmax: 2110 nM
